Assay results taken from PubChem BioAssay AID256 (DTP/NCI, 2004).
Inconclusive results and toxic doses are left out. The calls were made as follows: active = survival T/C of 150% or more; inactive = T/C below 125% in these data.

Test system: CD2F1 mice, L1210 leukemia ip, survival T/C
Assay: NCI In Vivo Anticancer Drug Screen. Data for tumor model L1210 Leukemia (intraperitoneal) in CD2F1 (CDF1) mice
Settings: higher = longer survival
Description: The antitumor activity of compounds was measured in mice bearing transplantable tumors. Survival or tumor size were measured and the results are expressed as the measurement made in the treated group (T) divided by the measurement made in the vehicle treated control group (C). The tumor model used in this assay is L1210 Leukemia (intraperitoneal) in CD2F1 (CDF1) mice

[1] = endpoint: mean survival time, dose: 100.0 mg/kg/injection, schedule: Q01DX009 (ip), vehicle: saline with Tween-80
[2] = endpoint: mean survival time, dose: 200.0 mg/kg/injection, schedule: Q01DX009 (ip), vehicle: saline with Tween-80
[3] = endpoint: mean survival time, dose: 100.0 mg/kg/injection, schedule: Q01DX001 (ip), vehicle: saline with Tween-80
[4] = endpoint: mean survival time, dose: 200.0 mg/kg/injection, schedule: Q01DX001 (ip), vehicle: saline with Tween-80
[5] = endpoint: mean survival time, dose: 400.0 mg/kg/injection, schedule: Q01DX001 (ip), vehicle: saline with Tween-80
[6] = endpoint: mean survival time, dose: 100.0 mg/kg/injection, schedule: Q04DX003 (ip), vehicle: saline with Tween-80
[7] = endpoint: mean survival time, dose: 200.0 mg/kg/injection, schedule: Q04DX003 (ip), vehicle: saline with Tween-80
[8] = endpoint: mean survival time, dose: 400.0 mg/kg/injection, schedule: Q04DX003 (ip), vehicle: saline with Tween-80
[9] = endpoint: mean survival time, dose: 100.0 mg/kg/injection, schedule: Q04DX002 (ip), vehicle: saline with Tween-80
[10] = endpoint: mean survival time, dose: 200.0 mg/kg/injection, schedule: Q04DX002 (ip), vehicle: saline with Tween-80
[11] = endpoint: mean survival time, dose: 400.0 mg/kg/injection, schedule: Q04DX002 (ip), vehicle: saline with Tween-80
[12] = endpoint: mean survival time, dose: 50.0 mg/kg/injection, schedule: Q01DX009 (ip), vehicle: saline with Tween-80
[13] = endpoint: mean survival time, dose: 25.0 mg/kg/injection, schedule: Q01DX009 (ip), vehicle: saline with Tween-80
[14] = endpoint: mean survival time, dose: 400.0 mg/kg/injection, schedule: Q01DX009 (ip), vehicle: saline with Tween-80

Measured: T/C

C(=Nc1ccccc1)c1ccc(C=Nc2ccccc2)cc1
inactive: [1] 106 % of control | endpoint: mean survival time, dose: 100.0 mg/kg/injection, schedule: Q04DX003 (ip), vehicle: saline sonified 97 % of control | [2] 94 % of control | endpoint: mean survival time, dose: 200.0 mg/kg/injection, schedule: Q04DX003 (ip), vehicle: saline sonified 102 % of control | endpoint: mean survival time, dose: 400.0 mg/kg/injection, schedule: Q04DX003 (ip), vehicle: saline sonified 97 % of control

CCOC(=O)C(C)C(C)=O (stereo unspecified)
inactive: endpoint: mean survival time, dose: 100.0 mg/kg/injection, schedule: Q01DX001 (ip), vehicle: saline 104 % of control | endpoint: mean survival time, dose: 200.0 mg/kg/injection, schedule: Q01DX001 (ip), vehicle: saline 98 % of control | endpoint: mean survival time, dose: 400.0 mg/kg/injection, schedule: Q01DX001 (ip), vehicle: saline 101 % of control

COc1ccc2ccccc2c1-c1c(OC)ccc2ccccc12
inactive: [3] 100 % of control | [4] 103 % of control | [5] 100 % of control

Clc1ccc(-c2nnc(-c3ccc(Cl)cc3)nn2)cc1
inactive: [6] 96 % of control | [7] 90 % of control | [8] 88 % of control

Cc1nccc(N)n1
inactive: [3] 89 % of control | [4] 90 % of control | [5] 90 % of control

Cc1nc2c(nc1C)C(=O)C(N1CCOCC1)=CC2=O
inactive: endpoint: mean survival time, dose: 6.25 mg/kg/injection, schedule: Q04DX003 (ip), vehicle: saline 100 % of control | endpoint: mean survival time, dose: 12.5 mg/kg/injection, schedule: Q01DX001 (ip), vehicle: saline 87 % of control | endpoint: mean survival time, dose: 12.5 mg/kg/injection, schedule: Q04DX003 (ip), vehicle: saline 100 % of control | endpoint: mean survival time, dose: 25.0 mg/kg/injection, schedule: Q01DX001 (ip), vehicle: saline 107 % of control | endpoint: mean survival time, dose: 25.0 mg/kg/injection, schedule: Q04DX003 (ip), vehicle: saline 98 % of control | endpoint: mean survival time, dose: 35.0 mg/kg/injection, schedule: Q04DX003 (ip), vehicle: saline 88 % of control | endpoint: mean survival time, dose: 55.0 mg/kg/injection, schedule: Q04DX003 (ip), vehicle: saline 91 % of control | endpoint: mean survival time, dose: 80.0 mg/kg/injection, schedule: Q04DX003 (ip), vehicle: saline 86 % of control

COc1ccc(NC(=O)Oc2c(Cl)cc(Cl)c3ccccc23)cc1
inactive: [9] 93 % of control | [10] 93 % of control | [11] 101 % of control

CN(C(=O)Nc1ccccc1)c1ccccc1
inactive: endpoint: mean survival time, dose: 50.0 mg/kg/injection, schedule: Q01DX009 (ip), vehicle: other 104 % of control | endpoint: mean survival time, dose: 100.0 mg/kg/injection, schedule: Q01DX009 (ip), vehicle: other 97 % of control | endpoint: mean survival time, dose: 200.0 mg/kg/injection, schedule: Q01DX009 (ip), vehicle: other 97 % of control

CCOC(=O)N/N=C/c1ccccc1
inactive: [3] 103 % of control | [4] 108 % of control | [5] 110 % of control

CSc1nc(Cl)c2cc(Cl)[nH]c2n1
inactive: endpoint: median survival time, dose: 1.5 mg/kg/injection, schedule: Q01DX009 (ip), vehicle: saline with Tween-80 104 % of control | endpoint: median survival time, dose: 3.0 mg/kg/injection, schedule: Q01DX009 (ip), vehicle: saline with Tween-80 107 % of control | endpoint: median survival time, dose: 6.0 mg/kg/injection, schedule: Q01DX009 (ip), vehicle: saline with Tween-80 110 % of control | endpoint: median survival time, dose: 50.0 mg/kg/injection, schedule: Q01DX005 (ip), vehicle: saline with Tween-80 100 % of control | endpoint: median survival time, dose: 100.0 mg/kg/injection, schedule: Q01DX005 (ip), vehicle: saline with Tween-80 101 % of control

CCCCCCCCCCCCCCCC(=O)N1CCN(C)CC1
inactive: [12] 89 % of control | [1] 91 % of control | [6] 93 % of control | [7] 90 % of control

CCOc1ccc2c(c1)c(CC(=O)O)c(C)n2C
inactive: endpoint: mean survival time, dose: 100.0 mg/kg/injection, schedule: Q01DX001 (ip), vehicle: other 95 % of control | endpoint: mean survival time, dose: 200.0 mg/kg/injection, schedule: Q01DX001 (ip), vehicle: other 98 % of control | endpoint: mean survival time, dose: 400.0 mg/kg/injection, schedule: Q01DX001 (ip), vehicle: other 98 % of control

N#CC1C2CCC(O2)C1C(=O)OCc1ccccc1 (stereo unspecified)
inactive: [13] 102 % of control | endpoint: mean survival time, dose: 25.0 mg/kg/injection, schedule: Q04DX002 (ip), vehicle: saline with Tween-80 106 % of control | [12] 102 % of control | endpoint: mean survival time, dose: 50.0 mg/kg/injection, schedule: Q04DX002 (ip), vehicle: saline with Tween-80 101 % of control | [1] 102 % of control | [9] 101 % of control | [10] 89 % of control

C=CN1C(=O)NC2(CCCCC2)C1=O
inactive: [13] 96 % of control | endpoint: mean survival time, dose: 25.0 mg/kg/injection, schedule: Q04DX003 (ip), vehicle: saline with Tween-80 92 % of control | [12] 96 % of control | endpoint: mean survival time, dose: 50.0 mg/kg/injection, schedule: Q04DX003 (ip), vehicle: saline with Tween-80 97 % of control | [6] 95 % of control

CCCCCC(C)SC#N (stereo unspecified)
inactive: [1] 97 % of control

CCCCCCCC(=O)Nc1cccc(C)c1C
inactive: [1] 105 % of control | [2] 89 % of control | [14] 104 % of control

CC(C)[C@](O)(C(=O)OCC1=CC[N+]2([O-])CC[C@@H](O)[C@@H]12)[C@H](C)O (stereo partly specified)
inactive: endpoint: mean survival time, dose: 50.0 mg/kg/injection, schedule: Q01DX009 (ip), vehicle: water 116 % of control | endpoint: mean survival time, dose: 750.0 mg/kg/injection, schedule: Q01DX001 (ip), vehicle: saline 96 % of control | endpoint: mean survival time, dose: 1000.0 mg/kg/injection, schedule: Q01DX001 (ip), vehicle: saline 101 % of control | endpoint: mean survival time, dose: 1250.0 mg/kg/injection, schedule: Q01DX001 (ip), vehicle: saline 97 % of control | endpoint: mean survival time, dose: 1500.0 mg/kg/injection, schedule: Q01DX001 (ip), vehicle: saline 105 % of control | endpoint: mean survival time, dose: 2000.0 mg/kg/injection, schedule: Q01DX001 (ip), vehicle: saline 117 % of control | endpoint: mean survival time, dose: 3000.0 mg/kg/injection, schedule: Q01DX001 (ip), vehicle: saline 115 % of control

Cc1ccc(C)c(NC(=O)c2ccc(Cl)cc2)c1
inactive: [6] 97 % of control | [7] 97 % of control | [8] 92 % of control

CCCCOC(=O)COc1ccc(F)cc1F
inactive: [9] 95 % of control | [10] 100 % of control | [11] 92 % of control

Cc1cccc(N=Cc2ccc3c(c2)OCO3)c1
inactive: endpoint: mean survival time, dose: 100.0 mg/kg/injection, schedule: Q04DX003 (ip), vehicle: Klucel (hydroxypropylcellulose) (HPC) 100 % of control | endpoint: mean survival time, dose: 200.0 mg/kg/injection, schedule: Q04DX003 (ip), vehicle: Klucel (hydroxypropylcellulose) (HPC) 111 % of control

CCOC(=O)CCCSc1nn(C2OC(CO)C(O)C2O)c(=O)[nH]c1=O (stereo unspecified)
inactive: endpoint: mean survival time, dose: 12.5 mg/kg/injection, schedule: Q01DX005 (ip), vehicle: water 101 % of control | endpoint: mean survival time, dose: 25.0 mg/kg/injection, schedule: Q01DX005 (ip), vehicle: water 101 % of control | endpoint: mean survival time, dose: 50.0 mg/kg/injection, schedule: Q01DX005 (ip), vehicle: water 101 % of control | endpoint: mean survival time, dose: 100.0 mg/kg/injection, schedule: Q01DX005 (ip), vehicle: water 98 % of control | endpoint: mean survival time, dose: 200.0 mg/kg/injection, schedule: Q01DX005 (ip), vehicle: water 104 % of control

COC(=O)c1ccc(OC(=O)Nc2ccc(N(CCCl)CCCl)cc2)cc1
inactive: endpoint: mean survival time, dose: 50.0 mg/kg/injection, schedule: Q01DX001 (ip), vehicle: Klucel (hydroxypropylcellulose) (HPC) 95 % of control

CCCCCCCCCCCCOCC[N+](C/C=C/c1ccccc1)(CCO)CCO
inactive: endpoint: mean survival time, dose: 6.25 mg/kg/injection, schedule: Q04DX003 (ip), vehicle: saline sonified 97 % of control | endpoint: mean survival time, dose: 12.5 mg/kg/injection, schedule: Q04DX003 (ip), vehicle: saline sonified 103 % of control | endpoint: mean survival time, dose: 25.0 mg/kg/injection, schedule: Q04DX003 (ip), vehicle: saline sonified 101 % of control

Nc1nc2c(nnn2C2CC(O)C(CO)C2)c(=O)[nH]1 (stereo unspecified)
inactive: [1] 100 % of control | [2] 104 % of control

CCCCCCCCCCNC(=O)C[n+]1cccc(C(=O)N(CC)CC)c1
inactive: endpoint: mean survival time, dose: 6.25 mg/kg/injection, schedule: Q01DX009 (ip), vehicle: saline with Tween-80 91 % of control | endpoint: mean survival time, dose: 12.5 mg/kg/injection, schedule: Q01DX009 (ip), vehicle: saline with Tween-80 97 % of control | [13] 91 % of control

O=C1c2ccccc2C(=O)N1CCCCCCCCCCN1C(=O)c2ccccc2C1=O
inactive: [1] 92 % of control | [2] 89 % of control | [14] 93 % of control

COc1ccc(OC)c(/C=C/c2ccc3ccccc3[n+]2C)c1
inactive: endpoint: mean survival time, dose: 5.0 mg/kg/injection, schedule: Q01DX009 (ip), vehicle: saline with Tween-80 98 % of control | endpoint: mean survival time, dose: 10.0 mg/kg/injection, schedule: Q01DX009 (ip), vehicle: saline with Tween-80 88 % of control
